“Also recorded” adds a separate entry of the source.
Assays:
[1] = biological target: T1, Myoglobin from horse heart digested with trypsin (Equus caballus, UniProt P68082); test: Myoglobin/Trypsin digest, HPLC peak area versus RapiGest control; type: biochemical; conditions: 0.01% surfactant, trypsin 50:1, 20 minutes at 37° C.; ratio to RapiGest control, >1 = more digestion
T1 construct: Myoglobin from horse heart; from tissue; host or cells: horse heart
Description: Myoglobin from horse heart (typically 25 μs) was digested with trypsin (Promega) at a 50:1 ratio in a volume of 125 μL (typical) of 50 mM Ammonium bicarbonate for 20 minutes at 37° C. with 0.01% RapiGest™ surfactant or 0.01% of the indicated compound of the invention (upper and lower chromatograms, respectively). TFA was added to 0.5-2% and the mixtures were incubated at 37° C. or 65° C. for 20 or 30 minutes. Degraded surfactant was removed by centrifugation at 14,000×g for 5 minutes. HPLC analysis was performed on a 25-50 μL reaction sample using an HP1050 LC system with an Agilent Sorbax SB-C18 column (3.0×100 mm, 3.5 micron) and a gradient of 0.1% TFA (97.5% initial) and Acetonitrile, 0.01% TFA (55% final condition followed by a 100% wash step) and a flow rate of 0.75 mL/min. Peptides were detected at 214 and 280 nm.
(§1) For each compound numbered below in Example 12, the rate of enhanced digestion was determined from the ratio of the surfactant peak area (surfactant # Pk. Area) to the Rapigest™ surfactant peak area (RG Pk area). Peak area was determined as the sum of all peaks integrated from 8-22 minutes.

[2] = biological target: T2, Bacteriorhodopsin digested with chymotrypsin (Halobacterium salinarum, UniProt P02945); test: Bacteriorhodopsin/Chymotrypsin digest, HPLC peak area versus RapiGest control; type: biochemical; conditions: 0.025% surfactant
T2 sequence (P02945 14-261 limits assumed): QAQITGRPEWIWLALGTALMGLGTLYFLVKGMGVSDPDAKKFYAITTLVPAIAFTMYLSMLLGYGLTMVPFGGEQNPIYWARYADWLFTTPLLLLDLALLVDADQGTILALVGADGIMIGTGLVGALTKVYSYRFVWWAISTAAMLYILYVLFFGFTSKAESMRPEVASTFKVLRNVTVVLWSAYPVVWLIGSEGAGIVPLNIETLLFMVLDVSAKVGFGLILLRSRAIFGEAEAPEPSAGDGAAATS
Description: Bacteriorhodopsin (25 μs) was heated with 0.025% Rapigest™ surfactant or the indicated compound of the invention for 5 minutes at 95° C., then digested with chymotrypsin (Sigma) at a 10:1 ratio in 125 μL 50 mM Ammonium bicarbonate for 1 hour at 37° C. After one hour TFA was added to 0.5-2% and the mixtures were incubated at 37° C. or 65° C. for 20 or 30 minutes. Degraded surfactant was removed by centrifugation at 14,000×g for 5 minutes. An aliquot of 50-100 μL of digested protein was analyzed by HPLC as described above.
Compound 3211, 3212, 3224 and Rapigest™ surfactant control for FIG. 13C reactions: Bacteriorhodopsin (25 μs) was solubilized with 0.025% compound of interest for 1-2 minutes at room temperature, then digested with chymotrypsin (Sigma) at a 10:1 ratio in 125 μL 50 mM Ammonium bicarbonate for 1 hour at 37° C. After one hour TFA was added to 0.5-2% and the mixtures were incubated at 37° C. or 65° C. for 20 or 30 minutes. Degraded surfactant was removed by centrifugation at 14,000×g for 5 minutes. An aliquot of 50-100 μL of digested protein was analyzed by HPLC as described above.
as §1

[3] = Hydrolytic stability in 50 mM ammonium bicarbonate (reverse-phase HPLC); type: physicochemical; design: key: >>: compound 100% stable over course of experiment
Description: Hydrolytic stability was measured by monitoring the change in retention time of the intact surfactant by reverse-phase HPLC. The ½-life is defined as the time required to reach 50% degradation.

[4] = Stability and degradation profile of surfactant 3211 solutions; type: physicochemical
Description: FIG. 1 illustrates the degradation profile of a 0.025% solution of surfactant 3211 at 40° C., according to one embodiment.
For example, degradation of surfactant compound 3211 after protein digestion is not required because the surfactant degrades during the digestion process. The stability of a 1% solution of 3211 (10% degradation) is 8 hours at 23° C., 12 days at 4° C., and an estimated >3 years at −20° C. However, the degradation rate of surfactant 3211 increases in a typical protein digestion protocol. […] Less than about 5% of intact surfactant remains after only 2 hours.

[5] = biological target: Horse myoglobin digested with trypsin (Equus caballus, UniProt P68082); test: One hour digestion of myoglobin with trypsin (HPLC); type: biochemical; conditions: for digestion of myoglobin in one hour (in words): trypsin, 3116: 0.01%, 50:1, one hour at 37° C.
Description: For example, digestion of myoglobin using standard protocol requires overnight digestion. […] Horse myoglobin was digested with trypsin at a 50:1 ratio for one hour at 37° C., alone and separately in the presence of 0.01% compound 3116.
The peaks in FIG. 3A and FIG. 3B indicate peptides or partial digestion fragments.

[6] = biological target: T3, beta subunit of mouse ATP synthase (Mus musculus, UniProt P56480); test: In-gel trypsin digestion of 56 kD band of mouse heart membrane protein, mass spectrometry; type: biochemical
T3 construct: Total membrane protein from mouse heart was resolved in SDS-polyacrylamide gel; from tissue; host or cells: mouse heart, total membrane protein, 56 kD SDS-PAGE band
Description: 13. Rehydrate for 5 minutes in 20 μL 12 ng/μL Trypsin Gold (in 0.025% surfactant A/50 mM […] AmBic). Overlay with 30 μL of 0.01% surfactant A/50 mM AmBic to cover gel pieces. Incubate 1 hour at 50° C.
Total membrane protein from mouse heart was resolved in SDS-polyacrylamide gel and a single protein band was digested with a conventional digestion protocol (control) and separately with a compound 3211-assisted protocol.
A band of the protein with an approximate MW of 56 kD was excised and digested with trypsin. The digested samples were analyzed by mass spectrometry. […] Asterisks indicate identified peptides for beta subunit of mouse ATP synthase (the major protein in 56 kD band).

[7] = Solubility of the surfactant; conditions: for solubility (concentration dissolved to): in 50 mM ammonium bicarbonate; for solubility in aqueous solutions (concentration dissolved to): aqueous solution
[8] = Acid and thermal degradation of the surfactant; conditions: for time to degradation in 0.5% TFA: 0.1% solution for 3220 and 3266
[9] = biological target: trypsin (Sus scrofa, UniProt P00761); test: Trypsin activity measured as rate of BAEE cleavage; type: biochemical; conditions: standard digestion conditions
Source text: Compound 3116 can be used as an acid-labile surfactant to facilitate the solubilization and denaturation of a protein or peptide. Compound 3116 stabilizes proteases and enhances the proteolysis activity of trypsin. See FIG. 2, which illustrates the effect of compound 3116 on trypsin activity.

[10] = biological target: T2, Bacteriorhodopsin digested with chymotrypsin; test: Bacteriorhodopsin/Chymotrypsin digest, HPLC peak area versus RapiGest control; type: biochemical; conditions: at 0.1% surfactant, BR boiled with surfactant, chymotrypsin 10:1
[11] = biological target: T4, Ovalbumin (albumin from chicken egg white) treated with PNGase F (Gallus gallus, UniProt P01012); test: Deglycosylation of ovalbumin with PNGase F (SDS-PAGE); type: biochemical; conditions: 0.025% surfactant, 1 hour and 20 minutes at 37° C.
T4 construct: Ovalbumin (albumin from chicken egg white); purchased Sigma
T4 sequence (P01012 2-386 limits assumed): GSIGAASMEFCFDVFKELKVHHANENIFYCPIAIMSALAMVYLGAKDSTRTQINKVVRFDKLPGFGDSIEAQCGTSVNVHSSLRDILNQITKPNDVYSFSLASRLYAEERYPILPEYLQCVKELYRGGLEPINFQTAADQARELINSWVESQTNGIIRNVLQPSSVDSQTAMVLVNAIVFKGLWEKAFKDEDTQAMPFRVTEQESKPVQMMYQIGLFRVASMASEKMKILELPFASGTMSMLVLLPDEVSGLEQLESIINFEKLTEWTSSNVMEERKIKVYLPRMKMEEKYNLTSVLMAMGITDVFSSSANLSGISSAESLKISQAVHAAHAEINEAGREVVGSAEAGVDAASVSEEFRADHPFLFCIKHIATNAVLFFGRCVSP
Description: Surfactants described herein were evaluated as replacements for SDS in deglycolsylation protocols. Ovalbumin (albumin from chicken egg white) was selected as a model protein. Ovalbumin is a 44.3 kD glycoprotein with 1.4 kD carbohydrate units linked to the protein. […] Surfactant compound 3266 is acid-labile and it can be easily degraded, allowing for analysis of the protein and carbohydrate using mass spectrometric analysis.
Ovalbumin (Sigma) (45 μg) was dissolved in 0.025% 3266/5 mM DTT/25 mM ammonium bicarbonate (pH ˜8) and incubated at 95° C. for 5 minutes. In the control reaction, 3266 was replaced with SDS. Deglycosylation was initiated by adding 1.5μ units PNGase F (Sigma). After 1 hour and 20 minutes of incubation at 37° C., the reactions were terminated by incubation at 95° C. for 5 minutes and an aliquot from each reaction was resolved with SDS-PAGE. […] The analyses indicate that compound 3266 is equivalent to the deglycosylation enhancement found using SDS, while eliminating the deleterious effects of SDS in concomitant spectrometric and chromatographic analysis.

[12] = surfactant conc. 0.025% in 50 mM ammonium bicarbonate
[13] = surfactant conc. 1% in 50 mM ammonium bicarbonate
[14] = 1 hour in-gel digestion with surfactant

T3 sequence (P56480 47-529): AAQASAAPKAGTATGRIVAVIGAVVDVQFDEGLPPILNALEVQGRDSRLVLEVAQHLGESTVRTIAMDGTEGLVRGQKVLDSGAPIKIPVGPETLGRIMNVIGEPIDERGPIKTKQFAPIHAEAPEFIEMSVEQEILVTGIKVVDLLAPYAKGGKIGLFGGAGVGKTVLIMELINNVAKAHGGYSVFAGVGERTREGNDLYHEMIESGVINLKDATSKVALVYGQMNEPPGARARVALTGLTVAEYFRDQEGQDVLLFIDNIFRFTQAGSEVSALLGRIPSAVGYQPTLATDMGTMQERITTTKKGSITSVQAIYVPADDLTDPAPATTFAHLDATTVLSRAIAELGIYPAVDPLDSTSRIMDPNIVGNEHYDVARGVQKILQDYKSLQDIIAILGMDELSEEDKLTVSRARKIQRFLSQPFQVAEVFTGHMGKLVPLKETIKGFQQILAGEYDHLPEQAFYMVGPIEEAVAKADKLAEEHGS
Horse myoglobin digested with trypsin, sequence (P68082 2-154 limits assumed): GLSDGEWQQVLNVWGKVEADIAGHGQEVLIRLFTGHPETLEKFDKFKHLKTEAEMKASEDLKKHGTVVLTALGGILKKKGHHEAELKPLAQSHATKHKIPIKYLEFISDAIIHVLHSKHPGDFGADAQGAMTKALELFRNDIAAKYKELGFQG
T1 sequence (P68082 2-154 limits assumed): as above
trypsin, sequence (P00761 9-231): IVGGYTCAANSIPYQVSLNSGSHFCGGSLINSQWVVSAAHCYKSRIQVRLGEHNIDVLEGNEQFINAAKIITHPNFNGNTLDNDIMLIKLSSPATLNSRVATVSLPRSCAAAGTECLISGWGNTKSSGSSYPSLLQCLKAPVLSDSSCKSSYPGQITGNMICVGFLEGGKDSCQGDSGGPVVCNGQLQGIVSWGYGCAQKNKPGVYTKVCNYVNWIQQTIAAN

CCCCCCCCCCC(OC(=O)NCCCS(=O)(=O)O)c1ccco1 (stereo not drawn) [Compound 3211]
surfactant Pk area/RG Pk area, Myoglobin/Trypsin digest [1]: 1.3
surfactant Pk area/RG Pk area, Bacteriorhodopsin/Chymotrypsin digest ([2]; BR solubilized at room temperature (not boiled), RapiGest control boiled): 0.9
½-life ([3]; 0.025%/20% AcN): 6 h
½-life ([3]; 0.025%/40% AcN): 52 h
½-life ([3]; 0.025%/60% AcN): >100 h
½-life ([3]; 0.025%/80% AcN): >>
½-life ([3]; 1%/50% AcN): >100 h
½-life ([3]; surfactant conc. 0.0025% in 50 mM ammonium bicarbonate): 0.5 h
½-life [3, 12]: 1.1 h
½-life ([3]; surfactant conc. 0.10% in 50 mM ammonium bicarbonate): 4.8 h
½-life [3, 13]: 21 h
intact surfactant remaining ([4]; 0.025% solution at 40° C., after 2 hours): Less than 5%
stability of a 1% solution (10% degradation) ([4]; 1% solution, 4° C.): 12 days
stability of a 1% solution (10% degradation) ([4]; 1% solution, 23° C.): 0.33 days
stability of a 1% solution (10% degradation), estimated ([4]; 1% solution, −20° C.): > 3 years
digestion of myoglobin in one hour (in words) [5]: complete digestion
increase in sequence coverage versus protocol without surfactant [6]: 50%
MASCOT score for beta subunit of ATP synthase [6, 14]: 920
sequence coverage for beta subunit of ATP synthase [6, 14]: 75%
solubility (concentration dissolved to) [7]: 1%
time to degradation in 0.5% TFA ([8]; 37° C. where stated): 15 min
time to degradation by boiling without TFA ([8]; boiling without TFA): 5 min
degradation at room temperature (in words) ([8]; room temperature): degrades even at room temperature at a substantial rate

CCCCCCCCCCCC(C)(C)OC(=O)NCCCS(=O)(=O)O [Compound 3116]
surfactant Pk area/RG Pk area, Myoglobin/Trypsin digest [1]: 0.6
surfactant Pk area/RG Pk area, Bacteriorhodopsin/Chymotrypsin digest ([2]; BR heated (boiled) with surfactant 5 minutes at 95° C., chymotrypsin 10:1, 1 hour at 37° C., ratio to RapiGest control): 1.5
effect on trypsin activity (in words) [9]: stabilized trypsin activity
identifiable peaks in HPLC chromatogram of myoglobin digest ([5]; 0.01% 3116, trypsin 50:1, one hour at 37° C.): > 15
digestion of myoglobin in one hour (in words) [5]: largely digested within one hour
solubility in aqueous solutions (concentration dissolved to) [7]: ≥ 0.5%
time to degradation of 0.01% solution ([8]; 0.01% solution, 37° C. where stated): ≤ 2 h

CCCCCCCCCCOc1ccc(C(OCCc2ccc(N(CCCCS(=O)(=O)[O-])CCCCS(=O)(=O)[O-])cc2)(c2ccccc2)c2ccccc2)cc1.[Na+].[Na+] [Compound 3214]
surfactant Pk area/RG Pk area, Bacteriorhodopsin/Chymotrypsin digest [10]: 0.6
solubility in aqueous solutions (concentration dissolved to) [7]: 1%

CCCCCCCCCCCCOS(=O)(=O)[O-].[Na+] [SDS, sodium dodecyl sulfate, reference compound]
effect on trypsin activity (in words) [9]: inhibited trypsin activity within 30 minutes
deglycosylation of ovalbumin by PNGase F (in words) [11]: transformed into a deglycosylated 42.9 kD form

CCCCCCCCCCCCC(OC(=O)NCCCS(=O)(=O)O)c1ccc(OC)c(OC)c1 (stereo not drawn) [Compound 3266]
surfactant Pk area/RG Pk area, Myoglobin/Trypsin digest [1]: 1.2
½-life [3, 12]: >>
½-life ([3]; surfactant conc. 0.25% in 50 mM ammonium bicarbonate): >>
½-life [3, 13]: >>
deglycosylation of ovalbumin by PNGase F (in words) [11]: rapidly removed carbohydrate from ovalbumin; also recorded: transformed into a deglycosylated 42.9 kD form
solubility (concentration dissolved to) [7]: 2%
time to degradation in 0.5% TFA ([8]; 37° C. where stated): ≤ 30 min
thermolability (in words) ([8]; 3266: 5 minutes at 95° C.): not thermolabile

From patent US10626349B2, “Cleavable surfactants” (PROMEGA CORPORATION, priority 2007, dated 2020)
